Laboratory results reported in patent publication US8304182B2, “Methods of identifying anti-cancer agents and uses thereof” (The Trustees of the University of Pennsylvania, priority 2003, dated 2012).

Tests used:
bax^−/−bak^−/− MEFs = format: cell-based, mouse
[1] = tested on: Mouse bone marrow derived macrophages; format: cell-based
p53^−/− MEFs = format: cell-based, mouse
[2] = format: cell-based, mouse
ATP = assay: Determination of cellular ATP; format: cell-based, mouse

SMILES: O=c1[nH]ccc2c(O)cccc12 [DHIQ]
- block of MNNG-induced cell death (bax^−/−bak^−/− MEFs): fully
- effect on MNNG-induced cell death rate (parp-1^−/− MEFs): did not affect the cell death rate

SMILES: CN[C@@H]1C[C@H]2O[C@@](C)([C@@H]1OC)n1c3ccccc3c3c4c(c5c6ccccc6n2c5c31)C(=O)NC4 [staurosporine]
- cell death (bax^−/−bak^−/− MEFs): no cell death was observed
- TNFα production by macrophages [1]: failed to do so
- cell death (cell survival by PI exclusion) (p53^−/− MEFs): induced cell death
- cell death (parp-1^−/− MEFs; parp-1^−/− cells, staurosporine, FIG. 3F): killed

SMILES: COc1cc([C@@H]2c3cc4c(cc3[C@@H](O[C@@H]3O[C@@H]5CO[C@@H](C)O[C@H]5[C@H](O)[C@H]3O)[C@H]3COC(=O)[C@H]23)OCO4)cc(OC)c1O [etoposide]
- cell death (cell survival by PI exclusion) (bax^−/−bak^−/− MEFs): resistant
- cell death (cell survival by PI exclusion) (p53^−/− MEFs): resistant

SMILES: O=C1NCCc2c(OCCCCN3CCCCC3)cccc21 [DPQ]
- prevention of MNNG-induced NAD depletion [2]: could be prevented
- prevention of MNNG-induced ATP depletion (ATP): could be prevented
